Test results: patent US20250188032A1, “NITROGEN-CONTAINING HETEROCYCLIC COMPOUNDS AND USES THEREOF” (BNH RESEARCH CO., LTD., priority 2022, published 2025)

Tests used:
HDAC4 = HDAC4 (Homo sapiens, UniProt P56524); assay: HDAC catalytic activity, fluorogenic substrate; assay type: biochemical; conditions: 10-dose, 3-fold serial dilution starting at 100 μM, duplicates
Method: (§1) The compound (racemate) was resuspended in 100 mM DMSO and tested in a 10-dose IC50 with 3-fold serial dilution starting at 100 μM against HDACs 1-9, and 11. As reference compounds, Trichostatin A (TSA) and TMP269 were tested in a 10-dose IC50 with 3-fold serial dilution starting at 10 μM or 1 μM.
(§2) 10 μM Fluorogenic peptide from p53 residues 379-382 (RHKK(Ac)AMC) was used for the substrate for HDAC 1, 2, 3, and 6, 50 μM Fluorogenic HDAC Class2a Substrate (Trifluoroacetyl Lysine) was used for the substrate for HDAC 4, 5, 7, 9, and 11, 100 μM Fluorogenic peptide from p53 residues 379-382 (RHK(Ac)K(Ac)AMC) was used for the substrate for HDAC8.
(§3) IC50 values were calculated using the GraphPad Prism 4 program based on a sigmoidal dose-response equation and the blank (DMSO) value concentration was entered as 1.00E-12 M for curve fitting.

HDAC7 = biological target: T1, HDAC7 (Homo sapiens, UniProt Q8WUI4); assay: HDAC catalytic activity, fluorogenic substrate; assay type: biochemical; conditions: 10-dose, 3-fold serial dilution starting at 100 μM, duplicates
T1 sequence (Q8WUI4 1-952): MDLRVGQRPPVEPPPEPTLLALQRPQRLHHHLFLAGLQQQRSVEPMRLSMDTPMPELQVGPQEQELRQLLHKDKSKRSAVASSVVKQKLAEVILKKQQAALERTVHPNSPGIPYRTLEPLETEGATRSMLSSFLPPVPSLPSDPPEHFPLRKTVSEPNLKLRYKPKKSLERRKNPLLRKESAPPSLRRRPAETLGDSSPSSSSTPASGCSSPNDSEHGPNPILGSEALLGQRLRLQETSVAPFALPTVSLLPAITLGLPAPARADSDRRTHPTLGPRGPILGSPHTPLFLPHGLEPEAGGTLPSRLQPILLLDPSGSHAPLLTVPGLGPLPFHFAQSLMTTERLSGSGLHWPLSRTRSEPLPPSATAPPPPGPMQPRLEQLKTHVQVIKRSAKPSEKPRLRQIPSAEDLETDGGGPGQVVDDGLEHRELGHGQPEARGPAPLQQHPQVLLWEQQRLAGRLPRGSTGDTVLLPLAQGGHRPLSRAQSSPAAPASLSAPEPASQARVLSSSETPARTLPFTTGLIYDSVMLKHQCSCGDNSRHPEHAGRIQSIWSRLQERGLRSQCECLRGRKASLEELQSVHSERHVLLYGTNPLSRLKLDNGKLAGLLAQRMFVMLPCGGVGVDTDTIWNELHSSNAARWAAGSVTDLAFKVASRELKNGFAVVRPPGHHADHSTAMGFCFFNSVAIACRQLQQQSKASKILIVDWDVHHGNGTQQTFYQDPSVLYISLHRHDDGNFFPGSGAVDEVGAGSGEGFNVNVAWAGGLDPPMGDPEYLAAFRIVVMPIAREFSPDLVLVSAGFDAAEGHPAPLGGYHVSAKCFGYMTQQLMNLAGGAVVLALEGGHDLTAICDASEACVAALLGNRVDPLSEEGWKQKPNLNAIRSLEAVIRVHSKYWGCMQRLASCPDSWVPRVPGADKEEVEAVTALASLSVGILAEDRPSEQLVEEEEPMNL
Method: as §1, §2, §3

GluN2B = assay: Western blot of GluN2B protein in cultured fetal cortical cells; assay type: cell-based, mice
Method: The amount of GluN2B reacted with the compound of the present disclosure was measured using Western blot. The fetal cerebral cortex was extracted from mice at 17 days of gestation, dissociated into single cells, cultured for 13 days, and treated with BnH drugs for 24 hours. The drug-treated cells were subjected to protein lysate preparation using RIPA protein lysis buffer containing protease and phosphatase inhibitors. The protein concentration was determined using a BCA protein assay kit (Pierce Biotechnology) using bovine serum albumin as a standard. Equal amounts of protein (20 μg per lane) were separated by electrophoresis on SDS-polyacrylamide gels at 90 V for 2 hours, then transferred from the SDS-polyacrylamide gel to PVDF membrane at 100 V for 1 hour. Then, primary reaction with GluN2B antibody (ab65783, Abcam) was performed at 4° C. for 1 day, washed three times at 10-minutes intervals with 1×PBT, and secondary reaction was performed with anti-mouse antibody (sc-2357, Santa Cruz) for 1 hour, followed by washing three times at 10-minutes intervals with 1×PBT. Western blotting was performed as described above to confirm GluN2B protein expression. Subsequently, each blot was re-probed using anti-β-actin antibody (sc-47778, Santa Cruz). Housekeeping protein β-actin was detected as a normalization control.
The increase and decrease of BnH12 series were confirmed by setting the vehicle to 1 (N for each group was 3 or more).
Using the experimental procedure described in Example 3, it was determined whether various BnH12 series compounds increase GluN2B expression, and the results are shown in Table 6. These in vitro experimental results are expressed as relative values to the group (vehicle) that was not treated with the compound, with the effect of the group set to 1.

[1] = test system: APP/PS1 mice hippocampus (Schaffer collateral-CA1); assay: fEPSP slope and LTP in hippocampus of Alzheimer's animal model; assay type: in vivo; conditions: 15 months old
Method: For intravenous injection, the tail vein injection method was used. […] In the drug injection test, the compound was administered once a day for about 11 to 13 days. 5 mice were used for the compound administration group and the control group, respectively.
For TC or hippocampus slice preparation. 9 to 10 weeks-old male C57BL/6J mice were anesthetized with isoflurane. Then, the brain was rapidly cooled via transcardial perfusion with ice-cold sucrose-artificial cerebrospinal fluid (aCSF). The brain was removed and placed in ice-cold sucrose aCSF. Paracoronal slices were prepared at an angle of 50° relative to the midline on a ramp at an angle of 10°. […]
Field recordings were made with a concentric bipolar electrode positioned in the stratum radiatum of the CA1 region using an extracellular glass pipette (3.5 MΩ) filled with aCSF. […] In all fEPSP experiments, the test stimulation were measured prior to the beginning of all the experiments (30 μA) and a test-pulse stimulation strength that evokes 50% of the maximum fEPSP was used. Baseline synaptic responses was recorded for 30 minutes, and then long-term potentiation (LTP) was induced by high-frequency stimulation (HFS; 100 Hz, 4 trains, 1 s duration, 20 s inter-train interval). […]
Excitatory postsynaptic potential (EPSP) was recorded by the whole-cell patch clamp method using a patch clamp amplifier (molecular devices, USA). […]

Sequence of HDAC4 (P56524 whole entry, species assumed): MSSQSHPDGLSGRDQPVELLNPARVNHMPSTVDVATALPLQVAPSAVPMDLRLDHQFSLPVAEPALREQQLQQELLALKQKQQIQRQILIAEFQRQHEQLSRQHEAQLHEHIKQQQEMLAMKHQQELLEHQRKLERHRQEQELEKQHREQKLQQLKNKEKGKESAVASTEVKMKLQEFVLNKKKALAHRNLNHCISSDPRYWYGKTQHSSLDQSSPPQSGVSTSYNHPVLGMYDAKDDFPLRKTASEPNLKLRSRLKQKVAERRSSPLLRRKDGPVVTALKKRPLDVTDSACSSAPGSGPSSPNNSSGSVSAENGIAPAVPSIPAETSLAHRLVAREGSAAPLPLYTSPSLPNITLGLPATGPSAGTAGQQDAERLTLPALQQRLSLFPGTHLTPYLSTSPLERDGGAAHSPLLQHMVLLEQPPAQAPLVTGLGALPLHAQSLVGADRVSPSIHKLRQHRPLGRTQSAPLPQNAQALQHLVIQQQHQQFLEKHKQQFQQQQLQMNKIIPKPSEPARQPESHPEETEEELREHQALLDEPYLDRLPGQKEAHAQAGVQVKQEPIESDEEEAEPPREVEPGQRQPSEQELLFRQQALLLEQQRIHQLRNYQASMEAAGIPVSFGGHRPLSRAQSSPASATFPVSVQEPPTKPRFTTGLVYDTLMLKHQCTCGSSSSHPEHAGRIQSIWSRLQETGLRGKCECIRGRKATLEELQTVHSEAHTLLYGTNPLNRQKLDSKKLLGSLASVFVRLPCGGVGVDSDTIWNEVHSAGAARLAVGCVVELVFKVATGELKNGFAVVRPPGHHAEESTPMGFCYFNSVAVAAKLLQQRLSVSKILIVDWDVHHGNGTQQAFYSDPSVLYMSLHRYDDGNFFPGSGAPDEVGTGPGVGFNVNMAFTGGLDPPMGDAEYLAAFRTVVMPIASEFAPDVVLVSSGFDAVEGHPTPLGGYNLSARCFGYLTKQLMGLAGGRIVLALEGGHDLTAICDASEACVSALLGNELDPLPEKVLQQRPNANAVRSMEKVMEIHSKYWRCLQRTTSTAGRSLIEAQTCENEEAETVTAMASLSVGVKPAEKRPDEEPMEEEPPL

Row | Structure (SMILES) | Inhibitory effect on HDAC4 catalytic activity (HDAC4) | Inhibitory effect on HDAC7 catalytic activity (HDAC7) | Effect on GluN2B expression compared to the vehicle (GluN2B; comment on Table 6) | GluN2B expression, Western blot results, Mean (GluN2B; relative value, vehicle set to 1, treated for 24 hours, N 3 or more) | Slope of fEPSP in CA1 region of Schaffer collateral circuit (synaptic efficacy) [1] | Synaptic long-term potentiation (LTP) of the excitatory SC pathway [1]
1 | CC1CCC(C(=O)O)CN1C(=O)Cc1ccc(F)cc1Cl (racemic) [BnH12001, 1-(2-(2-chloro-4-fluorophenyl)acetyl)-6-methylpiperidine-3-carboxylic acid] | did not show any inhibitory effect | did not show any inhibitory effect | – | – | – | –
2 | C[C@@H]1CC[C@H](C(=O)O)CN1C(=O)Cc1ccc(F)cc1Cl [BnH12001 enantiomer (3S,6R, 98%<), (3S,6R)-1-(2-(2-chloro-4-fluorophenyl)acetyl)-6-methylpiperidine-3-carboxylic acid] | – | – | excellent effects | 1.548 | increased synaptic efficacy | significantly increased
